These results are taken from ChEMBL document CHEMBL4765257, “Synthesis and structure-activity relationship study of pyrrolidine-oxadiazoles as anthelmintics against Haemonchus contortus” (Eur J Med Chem, 2020).

The structures appear in SMILES notation. Converted amounts (≈) assume the structure as drawn. A value given as a limit tells only on which side of the number the result lay.

Data set [1] relates to Haemonchus contortus. Briefly: Anti-helmintic activity against third-stage Haemonchus contortus larvae assessed as inhibition of xL3 motility measured after 72 hrs. Type of data set: functional, organism-based.
Another data set relates to MCF-10A. Briefly: Cytotoxicity against human MCF-10A cells assessed as inhibition of cell viability measured after 48 hrs by DAPI staining based analysis.
A short description of data set [2]: Cytotoxicity against human MCF-10A cells assessed as inhibition of cell viability at 50 uM measured after 48 hrs by DAPI staining based analysis. The following applies: read-out: INH.
Data set [3] concerns Haemonchus contortus. In words: Anti-helmintic activity against fourth stage of Haemonchus contortus larvae assessed as reduction in development of L4 stage incubated for 72 hrs followed by reincubation in humidified environment for 4 days. It is filed as functional, organism-based.
Data set [4] in a line: Half life in mouse liver microsomes at 0.5 uM measured upto 60 mins in presence of NADPH. It is filed as ADME, Microsome. For orientation: Liver microsomes are a subcellular fraction often used to study metabolism.
The nature of data set [5]: Half life in human liver microsomes at 0.5 uM measured upto 60 mins in presence of NADPH. It is filed as ADME, Microsome.
Data set [6] can be described thus: Kinetic solubility of the compound in 0.01M HCl at pH 2.0 incubated for 30 mins by nephelometry. Type of data set: physicochemical. The following applies: read-out: Kinetic_solubility.
Data set [7] in a line: Kinetic solubility of the compound in phosphate buffer pH 6.5 incubated for 30 mins by nephelometry. Type of data set: physicochemical. Particulars: read-out: Kinetic_solubility.
Data set [8] in a line: Intrinsic clearence in human liver microsomes at 0.5 uM measured upto 60 mins in presence of NADPH measured per mg protein. Type of data set: ADME, Microsome. The following applies: read-out: CLH.
The nature of data set [9]: Intrinsic clearence in mouse liver microsomes at 0.5 uM measured upto 60 mins in presence of NADPH measured per mg protein. It is filed as ADME, Microsome. Particulars: read-out: CLH.
[10] abbreviates: Haemonchus contortus, 72 h, read-out: IC50.

As usually defined, the IC50 is the concentration at which inhibition is half-maximal. In general, half-life refers to the time needed for the level to fall by half in the phase considered.

Consider `O=C(Nc1ccc(Cl)cc1)N1CCC[C@H]1c1nc(-c2ccccc2F)no1`, for which the IC50 entry was “Active” with Haemonchus contortus [1], over 50 µM in the data set with MCF-10A and over 100 µM in the data set with Haemonchus contortus [3]. Further, the cytotoxicity at 48 h, 50 µM in [2] was determined as 30%.
The matching figures for `Cc1ccc(-c2noc([C@@H]3CCCN3C(=O)Nc3ccc(Cl)cc3)n2)cc1`: “Active”, over 50 µM, 50 µM and 47%.
As to `O=C(Nc1ccc(Cl)cc1)N1CCC[C@H]1c1nc(-c2cccc(Cl)c2)no1`, the values for the half-inhibitory concentration (IC50) in the data set on Haemonchus contortus [1] (setting [10]), in the data set on MCF-10A and with Haemonchus contortus [3] were 3 µM, over 50 µM and 7.6 µM, respectively. The cytotoxicity at 48 h, 50 µM in data set [2] worked out at 17%.
The like results for `O=C(Nc1ccc(Cl)cc1)N1CCC[C@H]1c1nc(-c2cccc(Br)c2)no1` were, in that order, 1.1 µM, over 50 µM, over 100 µM and 20%.
The like results for `O=C(Nc1ccc(Cl)cc1)N1CCC[C@H]1c1nc(-c2ccc(Cl)cc2)no1` were, in that order, 1.5 µM, over 50 µM, 20 µM and 22%.
The matching figures for `O=C(Nc1ccc(Cl)cc1)N1CCC[C@H]1c1nc(-c2ccccc2Br)no1`: 12 µM, over 50 µM, 22 µM and 30%.
Consider `N#Cc1ccc(NC(=O)N2CCC[C@H]2c2nc(-c3ccccc3)no2)cc1`, for which the IC50 was 18 µM with Haemonchus contortus [1] (setting [10]), over 50 µM in the data set with MCF-10A and over 100 µM in the data set with Haemonchus contortus [3]. Moreover, the cytotoxicity at 48 h, 50 µM in [2] was 27%.
Regarding `O=C(Nc1ccc(C(F)(F)F)cc1)N1CCC[C@H]1c1nc(-c2ccccc2)no1`, the IC50 with Haemonchus contortus [1] (setting [10]) was 9.5 µM; in the data set with MCF-10A, over 50 µM; in the data set on Haemonchus contortus [3], 7 µM. The cytotoxicity at 48 h, 50 µM in data set [2] is 33%.
The matching figures for `O=C(Nc1ccc(Cl)cc1)N1CCC[C@H]1c1nc(-c2cccc(O)c2)no1`: 0.78 µM, over 50 µM, 22.4 µM and 32%.
The matching figures for `N#Cc1cccc(-c2noc([C@@H]3CCCN3C(=O)Nc3ccc(Cl)cc3)n2)c1`: over 100 µM, over 50 µM, over 100 µM and 16%.
The like results for `O=C(Nc1ccc(Cl)cc1)N1CCC[C@H]1c1nc(-c2ccccc2Cl)no1` were, in that order, 9.2 µM, over 50 µM, 20 µM and 40%.
For the molecule `O=C(Nc1ccc(Cl)cc1)N1CCC[C@H]1c1nc(-c2ccccc2)no1`, the values for the half-life at 0.5 µM in data set [4] and in [5] were 20 min and 93 min, respectively. The figures for the IC50 in the data set with Haemonchus contortus [1] (setting [10]), with MCF-10A and with Haemonchus contortus [3] were 5.3 µM, over 50 µM and 21 µM, respectively. Also, the solubility kinetic at 0.5 h in [6] and in data set [7] was 1.6 µg/mL (≈ 4.34 µM) throughout. In data set [2], the cytotoxicity at 48 h, 50 µM turned out to be 7.5%. The microsomal CLint at 0.5 µM in data set [8] came out at 19 µL/min/mg; in data set [9], 89 µL/min/mg.
In the case of `O=C(Nc1ccc(Cl)cc1)N1CCC[C@H]1c1nc(-c2ccc(I)cc2)no1`, the IC50 result with Haemonchus contortus [1] is “Active”; in the data set on MCF-10A it was over 50 µM; in the data set with Haemonchus contortus [3], 50 µM. In addition, in [2], the cytotoxicity at 48 h, 50 µM was 23%.
Regarding `O=C(Nc1ccc(Cl)cc1)N1CCC[C@H]1c1nc(-c2cccc(F)c2)no1`, the results for the IC50 with Haemonchus contortus [1] (setting [10]), in the data set with MCF-10A and in the data set on Haemonchus contortus [3] were 8.1 µM, over 50 µM and 18 µM, respectively. Besides, the cytotoxicity at 48 h, 50 µM in [2] was 22%.
The like results for `O=C(Nc1ccc(Br)cc1)N1CCC[C@H]1c1nc(-c2ccccc2)no1` were, in that order, 1.8 µM, over 50 µM, 12 µM and 20%.
